Results on six compounds are retold here after patent US9375409B2, “Use of polyunsaturated ketones for the treatment of psoriasis” (Avexxin AS, priority 2002, dated 2016).

Read-outs that look alike come from different tables or passages of the source.

The subject of one data set is HaCaT cells. Briefly: MTT assay (toxicity). The class given is cell-based, human. The method, then: Confluent cells were pretreated with inhibitors in serum free medium for 1 hour, and then treated with stimulating agent for 1 hour. Conversion of substrate [3-(4, 5-dimethylthiazol-2-yl)-2, 5-diphenyl tetrazolium bromide] was measured as optical density at 580 nm after 4 hours according to Mosmann [Mosmann T, J. Immunol. Methods 65, 55-63, 1983]. For each concentration of inhibitor nine parallels were measured.
A general note: Tetrazolium dyes change colour on reduction, which living cells bring about.

For data set [1], the target named is recombinant human IV PLA2 (Homo sapiens, UniProt P47712). Put plainly: biochemical. The settings on record: for inhibition at 5 µM: read-out: inhibition of IV PLA2 enzyme activity.
Sequence of recombinant human IV PLA2 (P47712 whole entry): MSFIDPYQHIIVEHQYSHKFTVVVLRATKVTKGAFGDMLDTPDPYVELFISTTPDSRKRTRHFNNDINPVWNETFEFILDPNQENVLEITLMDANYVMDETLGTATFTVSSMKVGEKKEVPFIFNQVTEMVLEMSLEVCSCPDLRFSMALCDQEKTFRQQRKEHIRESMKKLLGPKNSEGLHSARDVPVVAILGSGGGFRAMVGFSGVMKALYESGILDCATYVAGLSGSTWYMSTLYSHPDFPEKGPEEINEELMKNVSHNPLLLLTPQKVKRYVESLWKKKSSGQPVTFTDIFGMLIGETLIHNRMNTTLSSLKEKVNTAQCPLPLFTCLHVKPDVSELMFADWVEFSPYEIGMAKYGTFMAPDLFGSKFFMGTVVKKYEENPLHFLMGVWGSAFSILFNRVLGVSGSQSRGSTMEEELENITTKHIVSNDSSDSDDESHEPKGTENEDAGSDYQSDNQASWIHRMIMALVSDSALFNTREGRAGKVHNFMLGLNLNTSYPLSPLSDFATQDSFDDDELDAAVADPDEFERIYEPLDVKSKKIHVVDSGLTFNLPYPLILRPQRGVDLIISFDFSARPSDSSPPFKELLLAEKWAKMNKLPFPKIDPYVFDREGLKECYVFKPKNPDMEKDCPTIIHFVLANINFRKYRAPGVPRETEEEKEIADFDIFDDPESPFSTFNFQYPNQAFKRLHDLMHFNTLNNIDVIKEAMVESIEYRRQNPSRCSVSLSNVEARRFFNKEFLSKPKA
For data set [2], the system named is PGE2 production in HaCaT cells. Put plainly: A23187-induced PGE2 release in LPS-stimulated HaCaT cells (PGE2 EIA). The data set is classed as cell-based. The settings on record: Homo sapiens, 0.5 h, read-out: IC50 for inhibiting A23187-induced PGE2 release.
The mark [3] stands for this setting: read-out: IC50 for IV PLA2 inhibition.

As for `CNc1ccc2oc(C[C@H]3O[C@@]4(CC[C@H]3C)O[C@H]([C@H](C)C(=O)c3ccc[nH]3)[C@H](C)C[C@H]4C)nc2c1C(=O)O` [A23187], the “toxic concentration by MTT assay” value with HaCaT cells is “higher than 10 μM”.
For `CCCCC/C=C\C/C=C\C/C=C\C/C=C\CCCC(=O)C(F)(F)F` [AACOCF3, reference compound], in data set [1], the IC50 – broadly, the concentration needed to halve the response being measured – was 5.8 ± 1.9 µM and the inhibition (as a rule, how much of the control response was suppressed) at 5 µM is 75 to 80%.
Regarding `CC/C=C\C/C=C\C/C=C\C/C=C\C/C=C\C/C=C\CCC(=O)C(F)(F)F` [DHACOCF3], in data set [1] (setting [3]), the IC50 turned out to be 21.3 ± 1.5 µM. The inhibition at 5 µM in data set [1] was determined as 30%.
In the case of `CC/C=C\C/C=C\C/C=C\C/C=C\C/C=C\CCCC(=O)C(F)(F)F` [EPACOCF3], the results for the IC50 in data set [1] (setting [3]) and in data set [2] (HaCaT) were 2.9 ± 1.9 µM and 0.18 µM, respectively. For the same compound, the inhibition at 5 µM in data set [1] lay in the range of 75 to 80%.
On to `CC/C=C\C/C=C\C/C=C\C/C=C\C/C=C\CCSCC(=O)C(F)(F)F` [EPASCOCF3], for which, in data set [1] (setting [3]), the IC50 came out at 3.5 µM. Further, the inhibition at 5 µM in data set [1] is 75 to 80%.
`CS(=O)(=O)Nc1ccc([N+](=O)[O-])cc1OC1CCCCC1` [NS-398, reference compound]: in data set [2] (LPS-stimulated HaCaT cells, inhibitor 0.2-25 μM for 30 min, FIG. 4), the IC50 turned out to be 0.24 µM.
